PMC8190895 (RSC Chemical Biology, 2021)
Where two headings read alike, the source gives them in different places. Each block holds one compound with its values, some of them ahead of it.

Columns and labels:
Test in all cases: ITC
Assay type in all cases: binding
[1] = target: T1, Gal-8N (N-terminal CRD of human galectin-8) (Homo sapiens, UniProt O00214); details: read-out: Neu5Acα2-3Galb1-3GalNAc (3); PBS (50 mM sodium phosphate, 150 mM NaCl) pH 7.4, 1 mM TCEP, 298 K
T1 sequence (O00214 1-155): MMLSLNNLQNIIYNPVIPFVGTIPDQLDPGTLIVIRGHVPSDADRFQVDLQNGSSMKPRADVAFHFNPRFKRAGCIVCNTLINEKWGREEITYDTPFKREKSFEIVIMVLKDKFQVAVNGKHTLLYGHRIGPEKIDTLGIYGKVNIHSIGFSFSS

[2] = target: T2, Gal-8FL (full-length human galectin-8) (Homo sapiens, UniProt O00214); details: PBS (50 mM sodium phosphate, 150 mM NaCl) pH 7.4, 1 mM TCEP, 298 K
T2 sequence (O00214 1-317): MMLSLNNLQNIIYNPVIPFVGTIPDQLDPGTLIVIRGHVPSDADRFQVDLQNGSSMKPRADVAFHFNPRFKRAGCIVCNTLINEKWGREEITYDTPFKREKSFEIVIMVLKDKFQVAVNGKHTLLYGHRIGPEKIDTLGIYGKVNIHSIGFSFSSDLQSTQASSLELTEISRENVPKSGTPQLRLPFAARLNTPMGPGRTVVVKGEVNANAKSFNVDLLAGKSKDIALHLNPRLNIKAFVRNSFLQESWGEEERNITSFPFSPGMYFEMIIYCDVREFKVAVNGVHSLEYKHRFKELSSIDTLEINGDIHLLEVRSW

[3] = target: T3, Gal-8C (C-terminal CRD of human galectin-8) (Homo sapiens, UniProt O00214); details: PBS (50 mM sodium phosphate, 150 mM NaCl) pH 7.4, 1 mM TCEP, 298 K
T3 sequence (O00214 184-317): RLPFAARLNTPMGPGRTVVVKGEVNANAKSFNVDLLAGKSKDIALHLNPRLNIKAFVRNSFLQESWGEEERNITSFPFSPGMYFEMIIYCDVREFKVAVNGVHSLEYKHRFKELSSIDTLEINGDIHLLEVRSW

Kd [1]: 2.2 ± 0.1 µM
Kd ([2]; read-out: Neu5Acα2-3Galb1-3GalNAc (3), site: N-terminal CRD, not pre-loaded): 4.3 ± 0.4 µM
SMILES: CC(=O)N[C@H]1[C@H]([C@H](O)[C@H](O)CO)O[C@@](O[C@H]2[C@@H](O)[C@@H](CO)O[C@@H](O[C@H]3[C@@H](O)[C@@H](CO)OC(O)[C@@H]3NC(C)=O)[C@@H]2O)(C(=O)O)C[C@@H]1O (stereo partly drawn) [compound 3, 3-sialyl-Galβ1–3GalNAc]

Kd ([2]; read-out: A type II (6), site: C-terminal CRD, not pre-loaded): 12 ± 1 µM
Kd ([3]; read-out: A type II (6)): 13.45 ± 0.05 µM
SMILES: CC(=O)N[C@H]1[C@@H](O[C@H]2[C@@H](O)[C@@H](CO)O[C@@H](O[C@H]3[C@H](O)[C@@H](NC(C)=O)C(O)O[C@@H]3CO)[C@@H]2O[C@@H]2O[C@@H](C)[C@@H](O)[C@@H](O)[C@@H]2O)O[C@H](CO)[C@H](O)[C@@H]1O (stereo partly drawn) [compound 6, A type II]

Kd ([2]; read-out: B type II (5), site: C-terminal CRD): 36.7 ± 0.6 µM
Kd ([3]; read-out: B type II (5)): 18.4 ± 0.1 µM
SMILES: CC(=O)N[C@H]1C(O)O[C@H](CO)[C@@H](O[C@@H]2O[C@H](CO)[C@H](O)[C@H](O[C@H]3O[C@H](CO)[C@H](O)[C@H](O)[C@H]3O)[C@H]2O[C@@H]2O[C@@H](C)[C@@H](O)[C@@H](O)[C@@H]2O)[C@@H]1O (stereo partly drawn) [compound 5, B type II]
